Measured values taken from US9688691B2, “Macrocyclic quinazole derivatives and their use as MTKI” (Janssen Pharmaceutica NV, priority 2004, dated 2017).

Legend:
[1] = target: Fgr human (Homo sapiens, UniProt P09769); assay: Kinase profiling, glass-fiber filter technology: Fgr; format: biochemical; conditions: test concentration of 10^−6 M; read-out: Fgr inhibition score
Experimental: (§1) The in vitro inhibition of a panel of kinases was assessed using the glass-fiber filter technology as described by Davies, S. P. et al., Biochem J. (2000), 351; p. 95-105.
(§2) In the glass-fiber filter technology the activity of the kinase of interest is measured using an appropriate substrate that is incubated with the aforementioned kinase protein in the presence of (^33P) radiolabeled ATP. (^33P) Phosporylation of the substrate is subsequently measured as radioactivity bound on a glassfiber-filter.
(§3) All kinases are pre-diluted to a 10× working concentration prior to addition into the assay. The composition of the dilution buffer for each kinase is detailed below.
(§4) All substrates are dissolved and diluted to working stocks in de-ionised water.
(§5) In a final reaction volume of 25 μl, Fgr human (5-10 mU) is incubated with 8 mM MOPS pH 7.0, 0.2 mM EDTA, 0.1 mg/ml poly(Glu, Tyr) 4:1, 10 mM MgAcetate and [γ-^33P-ATP] (specific activity approx. 500 cpm/pmol, concentration as required). The reaction is initiated by the addition of the MgATP mix. After incubation for 40 minutes at room temperature, the reaction is stopped by the addition of 5 μl of a 3% phosphoric acid solution. 10 μl of the reaction is then spotted onto a Filtermat A and washed three times for 5 minutes in 75 mM phosphoric acid and once in methanol prior to drying and scintillation counting.

[2] = target: cSRC (h) (Homo sapiens, UniProt P12931); assay: Kinase profiling, glass-fiber filter technology: cSRC; format: biochemical; conditions: test concentration of 10^−6 M; read-out: cSRC inhibition score
cSRC (h), sequence (P12931 whole entry): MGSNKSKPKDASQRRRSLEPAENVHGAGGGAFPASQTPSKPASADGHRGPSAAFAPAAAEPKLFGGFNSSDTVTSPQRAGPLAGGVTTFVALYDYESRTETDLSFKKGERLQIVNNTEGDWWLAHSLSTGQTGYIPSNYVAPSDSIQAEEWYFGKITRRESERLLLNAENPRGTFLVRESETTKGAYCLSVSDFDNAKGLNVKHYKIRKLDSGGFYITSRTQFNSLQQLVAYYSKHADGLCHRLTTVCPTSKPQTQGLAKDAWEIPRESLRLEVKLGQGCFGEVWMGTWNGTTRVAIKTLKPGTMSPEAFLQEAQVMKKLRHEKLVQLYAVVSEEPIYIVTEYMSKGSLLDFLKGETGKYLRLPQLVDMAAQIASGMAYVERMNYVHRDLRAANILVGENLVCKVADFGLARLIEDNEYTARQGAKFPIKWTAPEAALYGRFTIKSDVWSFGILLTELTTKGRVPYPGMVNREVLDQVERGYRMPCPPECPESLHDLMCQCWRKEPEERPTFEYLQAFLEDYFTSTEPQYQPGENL
Experimental: as §1, §2, §3, §4
In a final reaction volume of 25 μl, cSRC (h) (5-10 mU) is incubated with 8 mM MOPS pH 7.0, 0.2 mM EDTA, 250 μM KVEKIGEGTYGVVYK (Cdc2 peptide), 10 mM MgAcetate and [γ-^33P-ATP] (specific activity approx. 500 cpm/pmol, concentration as required). The reaction is initiated by the addition of the MgATP mix. After incubation for 40 minutes at room temperature, the reaction is stopped by the addition of 5 μl of a 3% phosphoric acid solution.
10 μl of the reaction is then spotted onto a P30 filtermat and washed three times for 5 minutes in 75 mM phosphoric acid and once in methanol prior to drying and scintillation counting.

[3] = target: Abl (h) (Homo sapiens, UniProt P00519); assay: Kinase profiling, glass-fiber filter technology: Abl; format: biochemical; conditions: test concentration of 10^−6 M; read-out: Abl inhibition score
Abl (h), sequence (P00519 whole entry): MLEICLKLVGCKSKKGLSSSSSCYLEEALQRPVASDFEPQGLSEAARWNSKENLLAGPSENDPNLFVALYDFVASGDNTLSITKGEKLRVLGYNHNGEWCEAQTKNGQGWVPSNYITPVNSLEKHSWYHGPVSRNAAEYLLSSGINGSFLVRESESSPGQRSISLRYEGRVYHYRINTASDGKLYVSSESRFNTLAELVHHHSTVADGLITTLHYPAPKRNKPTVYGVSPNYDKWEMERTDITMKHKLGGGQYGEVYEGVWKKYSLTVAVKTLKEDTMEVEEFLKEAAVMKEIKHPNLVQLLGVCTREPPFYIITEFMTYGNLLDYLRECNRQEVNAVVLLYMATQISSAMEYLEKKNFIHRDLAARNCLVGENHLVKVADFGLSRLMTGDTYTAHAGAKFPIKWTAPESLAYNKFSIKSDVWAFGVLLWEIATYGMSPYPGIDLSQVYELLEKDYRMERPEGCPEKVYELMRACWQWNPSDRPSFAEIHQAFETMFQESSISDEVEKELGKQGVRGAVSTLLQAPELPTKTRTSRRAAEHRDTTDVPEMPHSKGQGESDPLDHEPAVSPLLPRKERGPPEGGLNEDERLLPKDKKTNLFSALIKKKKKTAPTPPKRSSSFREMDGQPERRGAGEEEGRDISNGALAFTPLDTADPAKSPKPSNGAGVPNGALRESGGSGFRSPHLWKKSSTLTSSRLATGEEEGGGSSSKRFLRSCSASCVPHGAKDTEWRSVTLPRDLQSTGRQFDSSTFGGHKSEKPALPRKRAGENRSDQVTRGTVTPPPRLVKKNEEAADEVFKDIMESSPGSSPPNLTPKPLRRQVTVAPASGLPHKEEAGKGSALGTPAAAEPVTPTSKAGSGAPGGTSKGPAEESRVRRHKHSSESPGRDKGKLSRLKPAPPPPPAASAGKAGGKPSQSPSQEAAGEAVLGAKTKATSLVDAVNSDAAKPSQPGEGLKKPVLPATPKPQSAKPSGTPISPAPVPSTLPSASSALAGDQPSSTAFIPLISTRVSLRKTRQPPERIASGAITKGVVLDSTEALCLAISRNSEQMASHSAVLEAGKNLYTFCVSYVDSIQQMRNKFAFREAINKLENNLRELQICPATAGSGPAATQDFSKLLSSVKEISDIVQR
Experimental: as §1, §2, §3, §4
as §5, with “Abl (h)” for “Fgr human”, “50 μM EAIYAAPFAKKK,” for “0.1 mg/ml poly(Glu, Tyr) 4:1,”, “P30 filtermat” for “Filtermat A”

[4] = target: CDK5/p35 human (Homo sapiens, UniProt Q00535); assay: Kinase profiling, glass-fiber filter technology: CDK5/p35; format: biochemical; conditions: test concentration of 10^−6 M; read-out: CDK5/p35 inhibition score
CDK5/p35 human, sequence (Q00535 whole entry): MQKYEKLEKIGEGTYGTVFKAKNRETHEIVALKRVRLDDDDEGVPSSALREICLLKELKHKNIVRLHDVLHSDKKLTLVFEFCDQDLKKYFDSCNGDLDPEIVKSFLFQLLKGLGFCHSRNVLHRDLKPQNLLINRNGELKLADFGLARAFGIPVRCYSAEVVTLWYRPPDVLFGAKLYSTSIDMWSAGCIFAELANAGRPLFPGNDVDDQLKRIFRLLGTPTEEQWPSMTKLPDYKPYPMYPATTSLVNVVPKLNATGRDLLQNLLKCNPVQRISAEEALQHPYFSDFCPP
CDK5/p35 human, sequence (Q15078 whole entry partner): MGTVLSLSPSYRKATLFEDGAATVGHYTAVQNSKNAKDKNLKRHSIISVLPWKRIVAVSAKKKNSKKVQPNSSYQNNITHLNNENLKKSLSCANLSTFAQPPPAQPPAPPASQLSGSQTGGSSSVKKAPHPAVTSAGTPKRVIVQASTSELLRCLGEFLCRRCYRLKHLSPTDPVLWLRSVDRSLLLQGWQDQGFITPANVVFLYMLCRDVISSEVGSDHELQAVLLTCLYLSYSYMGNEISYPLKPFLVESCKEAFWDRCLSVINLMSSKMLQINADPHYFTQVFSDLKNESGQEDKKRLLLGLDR
Experimental: as §1, §2, §3, §4
as §5, with “CDK5/p35” for “Fgr”, “histone H1,” for “poly(Glu, Tyr) 4:1,”, “P30 filtermat” for “Filtermat A”

[5] = target: CDK6/cyclinD3 human (Homo sapiens, UniProt Q00534); assay: Kinase profiling, glass-fiber filter technology: CDK6/cyclinD3; format: biochemical; conditions: test concentration of 10^−6 M; read-out: CDK6/cyclinD3 inhibition score
CDK6/cyclinD3 human, sequence (Q00534 whole entry): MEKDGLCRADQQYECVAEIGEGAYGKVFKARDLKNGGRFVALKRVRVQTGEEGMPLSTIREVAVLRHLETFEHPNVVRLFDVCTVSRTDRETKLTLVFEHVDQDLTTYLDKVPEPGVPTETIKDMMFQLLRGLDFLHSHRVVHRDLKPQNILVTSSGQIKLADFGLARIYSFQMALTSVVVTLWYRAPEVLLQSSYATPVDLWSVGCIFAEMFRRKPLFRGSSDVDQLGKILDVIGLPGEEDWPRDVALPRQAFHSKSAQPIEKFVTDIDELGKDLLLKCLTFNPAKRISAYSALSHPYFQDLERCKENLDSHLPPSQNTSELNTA
CDK6/cyclinD3 human, sequence (P30281 whole entry partner): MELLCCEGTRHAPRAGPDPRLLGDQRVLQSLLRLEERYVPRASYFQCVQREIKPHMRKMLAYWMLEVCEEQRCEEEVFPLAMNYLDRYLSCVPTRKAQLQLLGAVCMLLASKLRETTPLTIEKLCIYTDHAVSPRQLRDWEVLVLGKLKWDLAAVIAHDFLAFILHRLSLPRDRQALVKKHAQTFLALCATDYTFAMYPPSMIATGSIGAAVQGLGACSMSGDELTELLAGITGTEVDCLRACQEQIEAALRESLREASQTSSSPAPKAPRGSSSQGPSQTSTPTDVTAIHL
Experimental: as §1, §2, §3, §4
as §5, with “CDK6/cyclinD3” for “Fgr”, “histone H1,” for “poly(Glu, Tyr) 4:1,”, “P30 filtermat” for “Filtermat A”

Fgr human, sequence (P09769 whole entry): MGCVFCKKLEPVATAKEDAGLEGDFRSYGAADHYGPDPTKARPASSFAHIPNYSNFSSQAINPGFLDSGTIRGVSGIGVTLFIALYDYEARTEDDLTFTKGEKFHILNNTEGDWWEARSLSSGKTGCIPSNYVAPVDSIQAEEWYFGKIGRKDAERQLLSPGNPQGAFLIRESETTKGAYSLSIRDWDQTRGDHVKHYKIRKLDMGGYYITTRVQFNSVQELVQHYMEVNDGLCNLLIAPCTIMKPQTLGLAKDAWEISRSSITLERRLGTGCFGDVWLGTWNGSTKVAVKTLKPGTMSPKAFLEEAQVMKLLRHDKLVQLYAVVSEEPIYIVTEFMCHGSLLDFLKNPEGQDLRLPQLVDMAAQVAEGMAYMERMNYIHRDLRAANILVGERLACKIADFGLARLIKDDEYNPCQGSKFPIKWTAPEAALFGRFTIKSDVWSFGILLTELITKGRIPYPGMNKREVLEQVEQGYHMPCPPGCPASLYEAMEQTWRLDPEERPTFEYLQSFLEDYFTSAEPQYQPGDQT

Compound | inhibition at 1 µM [1] | inhibition at 1 µM [2] | melting point | inhibition at 1 µM [3] | inhibition at 1 µM [4] | inhibition at 1 µM [5]
CC(=O)OCCN(C)CCCOc1cc2ncnc3c2cc1OCCCNC(=O)[C@H](C)N(C)Cc1cc(F)c(Cl)cc1N3 [Compound 2] | 10 to 30% | > 80% | – | – | – | –
CC(=O)NCCNCCCOc1cc2ncnc3c2cc1OCCCNC(=O)[C@H](C)N(C)Cc1cc(F)c(Cl)cc1N3 [Compound 4] | – | > 80% | 112 °C | – | – | –
CC(=O)N(CCO)CCCOc1cc2ncnc3c2cc1OCCCNC(=O)[C@H](C)N(C)Cc1cc(F)c(Cl)cc1N3 [Compound 5] | 10 to 30% | > 80% | – | – | – | –
CC(=O)NCCN1CCN(CCCOc2cc3ncnc4c3cc2OCCCNC(=O)[C@H](C)N(C)Cc2cc(F)c(Cl)cc2N4)CC1 [Compound 6] | – | > 80% | 136 °C | > 80% | – | –
CN1CCCCCOc2cc3c(ncnc3cc2OCCCNC(=O)OC(C)(C)C)Nc2cc(Br)ccc2C1 [Compound 11] | 10 to 30% | 60 to 80% | – | – | – | –
CN1CCCCCOc2cc3c(ncnc3cc2OC[C@@H](O)CN2CCS(=O)(=O)CC2)Nc2cc(Br)ccc2C1 [Compound 12] | 60 to 80% | > 80% | – | – | – | –
CC(=O)NCCNCCCOc1cc2ncnc3c2cc1OCCCCCN(C)Cc1ccc(Br)cc1N3 [Compound 13] | > 80% | > 80% | – | – | – | –
CN1CCCCCOc2cc3c(ncnc3cc2OCCCNCCS(C)(=O)=O)Nc2cc(Br)ccc2C1 [Compound 14] | 60 to 80% | > 80% | – | – | – | –
COc1cc2ncnc3c2cc1OCCCN(CCN1CCOCC1)C(=O)CNC(=O)Cc1ccc(Cl)cc1N3 [Compound 15] | – | 30 to 60% | – | > 80% | 10 to 30% | –
CN1CCCCCOc2cc3c(ncnc3cc2OC[C@H](O)CNCCOCCO)Nc2cc(Cl)c(F)cc2C1 [Compound 17] | – | > 80% | – | > 80% | – | –
CN1CCCCCOc2cc3c(ncnc3cc2OCCCNCCS(C)(=O)=O)Nc2cc(Cl)c(F)cc2C1 [Compound 18] | – | > 80% | – | > 80% | – | –
CN1CCCCCOc2cc3c(ncnc3cc2OCCCN2CCS(=O)(=O)CC2)Nc2cc(Cl)c(F)cc2C1 [Compound 19] | 60 to 80% | > 80% | – | – | – | –
C#Cc1ccc2c(c1)Nc1ncnc3cc(OCCCNCCS(C)(=O)=O)c(cc13)OCCCCCN(C)C2 [Compound 20] | > 80% | > 80% | – | – | – | –
C[C@H]1C(=O)NCCCOc2cc3c(ncnc3cc2OCCCN2CCN(C(=O)OC(C)(C)C)CC2)Nc2cc(Cl)c(F)cc2CN1C [Int. 16] | 10 to 30% | > 80% | – | – | – | –
COc1cc2ncnc3c2cc1OCCCN(CCCN1CCOCC1)C(=O)[C@H](CC(C)C)NC(=O)Cc1ccc(Br)cc1N3 [Int. 25] | – | 30 to 60% | – | 10 to 30% | – | –
COCCOCCOc1cc2ncnc3c2cc1OCCCCCN(C)Cc1ccc(Br)cc1N3 [Int. 43] | 30 to 60% | > 80% | – | 60 to 80% | – | 10 to 30%
